Assays:
[1] = Solubility detection of CAK01-CAK07; format: physicochemical
Source text: The chlorinated monocarbonyl curcumin compounds CAK01-CAK07 prepared under the conditions of Example 1 were taken for nuclear magnetic resonance, mass spectrometry, solubility, and melting point detection.

PC12 cells [2] = experiment: Inhibition of corticosterone (CORT)-induced PC12 cell damage; format: cell-based, rat; details: 24 h; for effect on viability of CORT-damaged PC12 cells: 3.75-60 μM drug with 514.6 μM CORT, in words
[3] = ABTS free radical capture ability; format: biochemical; details: 20 min reaction in the dark
Protocol: 66.2 mg of K2S2O8 was weighed and placed in a 100 mL volumetric flask, pure water was added to the scale line to prepare a 2.45 mmol/L K2S2O8 solution. 192 mg of ABTS was accurately weighed and placed in a 25 mL volumetric flask, and the newly prepared K2S2O8 solution was added for dissolving and constant volume dilution, after standing in the dark for 20 h, the ABTS mother liquor was obtained. Before use, to make the measured value more accurate, the ABTS mother liquor needs to be diluted with a PBS solution of pH7.4 until the absorbance range of the ABTS working solution at 734 nm is 0.70±0.02.
Drug concentration screening: To avoid the complete removal of free radicals by excessive drug concentration and the inability to compare the ability to capture ABTS free radicals, a preliminary screening of drug concentration is required before the formal test. A gradient concentration of compound solution was prepared, and a gradient concentration of Vit C solution was prepared as a positive control. A total of 450 μL of ABTS working solution was accurately absorbed into a 1.5 mL EP tube, and 150 μL of the gradient solution of each group of drugs was added, after 20 min of reaction in the dark, 150 μL of the reaction solution was taken and placed in a 96-well plate, the absorbance was measured by a microplate reader. Three duplicate wells were set for each concentration, and the drug concentration with absorbance between 0.2-0.7 was selected for subsequent determination.
Determination operation: After the drug concentration screening was completed, 7 concentration gradient groups were set within this concentration range. A total of 450 μL of ABTS working solution was accurately absorbed into a 1.5 mL EP tube, and 150 μL of the gradient solution of each group of drugs was added. After 20 min of reaction in the dark, 150 μL of the reaction solution was taken and placed in a 96-well plate, the absorbance was measured by a microplate reader. Three duplicate wells were set for each concentration, the positive control group was a gradient solution of Vit C, and the blank control group was an equal volume of anhydrous ethanol.

PC12 cells [4] = experiment: Inhibition of H2O2-induced oxidative damage in PC12 cells; format: cell-based, rat; details: for effect on survival of H2O2-damaged PC12 cells: drug concentration below 30 μM, 24 h, in words
Protocol: After 24 hours of incubation in the incubator, the relative proliferation rates of the cells were calculated according to the method under Section 2.1.

PC12 cells [5] = experiment: MTT toxicity (safety evaluation) on PC12 nerve cells; format: cell-based; details: for cytotoxicity to PC12 cells: 3.75-60 μM, 24 h and 48 h, in words
Protocol: The toxicity of each drug to PC12 cells was determined by MTT assay. The principle of the MTT colorimetric method: there is succinate dehydrogenase in the mitochondria of living cells, which can make exogenous MTT become blue-purple crystal formazan insoluble in water, this phenomenon cannot be observed in dead cells. The blue-purple crystal formazan can be dissolved by DMSO, and the absorbance value is measured by a microplate reader at a wavelength of 490 nm, which in turn reflects the number of living cells. […] The operation method is as follows:
The cells were resuscitated with DMEM high glucose medium containing 10% fetal bovine serum and cultured in a 5% CO2 cell incubator at 37° C., when the cells grew to the logarithmic growth phase, they were inoculated into a 96-well plate and cultured for 24 hours, each well was added with 100 μL of each compound solution at the corresponding gradient concentration (60, 30, 15, 7.5, 3.75 μM), after incubation in the incubator for 24 h or 48 h, 20 μL of MTT was added to continue incubation for 4 h, the supernatant was discarded and 150 μL of DMSO was added to dissolve the blue-purple crystals, after shaking for 10 min, the cell viability was detected by a microplate reader, and classified according to the cytotoxicity standard. The relevant calculation formula is as follows: […]

Compound	solubility [1] [mg/100 g]	IC50 values of ABTS captured [3] [µg/mL]	effect on survival of H2O2-damaged PC12 cells (PC12 cells [4])	Rank (cytotoxicity standard) 24 h (PC12 cells [5]; PC12, 3.75 μM)	Relative growth rate (%) 24 h (PC12 cells [5]; PC12, 3.75 μM) [%]	Rank (cytotoxicity standard) 48 h (PC12 cells [5]; PC12, 3.75 μM)	Relative growth rate (%) 48 h (PC12 cells [5]; PC12, 3.75 μM) [%]	Rank (cytotoxicity standard) 24 h (PC12 cells [5]; PC12, 7.5 μM)	Relative growth rate (%) 24 h (PC12 cells [5]; PC12, 7.5 μM) [%]	Rank (cytotoxicity standard) 48 h (PC12 cells [5]; PC12, 7.5 μM)	Relative growth rate (%) 48 h (PC12 cells [5]; PC12, 7.5 μM) [%]	Rank (cytotoxicity standard) 24 h (PC12 cells [5]; PC12, 15 μM)	Relative growth rate (%) 24 h (PC12 cells [5]; PC12, 15 μM) [%]	Rank (cytotoxicity standard) 48 h (PC12 cells [5]; PC12, 15 μM)	Relative growth rate (%) 48 h (PC12 cells [5]; PC12, 15 μM) [%]	Rank (cytotoxicity standard) 24 h (PC12 cells [5]; PC12, 30 μM)	Relative growth rate (%) 24 h (PC12 cells [5]; PC12, 30 μM) [%]	Rank (cytotoxicity standard) 48 h (PC12 cells [5]; PC12, 30 μM)	Relative growth rate (%) 48 h (PC12 cells [5]; PC12, 30 μM) [%]	Rank (cytotoxicity standard) 24 h (PC12 cells [5]; PC12, 60 μM)	also measured
O=C1/C(=C/c2cc(Cl)c(O)c(Cl)c2)CNC/C1=C\c1cc(Cl)c(O)c(Cl)c1 [CAK01, 3,5-bis ((E)-3,5-dichloro-4-hydroxybenzylidene) piperidin-4-one]	0.17	79.62	increased the survival rate of cells in a concentration-dependent manner	0	104.22 ± 1.99	1	99.22 ± 1.65	0	101.17 ± 2.97	0	100.73 ± 3.19	1	99.46 ± 2.16	1	99.33 ± 1.79	0	101.62 ± 3.23	0	100.73 ± 2.88	0	effect on viability of CORT-damaged PC12 cells (PC12 cells [2]): did not show the potential to restore cell viability; cytotoxicity to PC12 cells (PC12 cells [5]): no significant cytotoxicity; Relative growth rate (%) 24 h (PC12 cells [5]; PC12, 60 μM): 104.04 ± 1.43%; Rank (cytotoxicity standard) 48 h (PC12 cells [5]; PC12, 60 μM): 1; Relative growth rate (%) 48 h (PC12 cells [5]; PC12, 60 μM): 85.41 ± 3.45%
CN1C/C(=C\c2cc(Cl)c(O)c(Cl)c2)C(=O)/C(=C/c2cc(Cl)c(O)c(Cl)c2)C1 [CAK02, 3,5-bis ((E)-3,5-dichloro-4-hydroxybenzylidene)-1-methylpiperidin-4-one]	0.09	223.7	increased the survival rate of cells in a concentration-dependent manner	0	102.93 ± 1.13	1	98.35 ± 1.84	1	99.40 ± 4.11	0	100.22 ± 3.73	1	95.08 ± 10.06	1	95.22 ± 1.86	1	99.48 ± 1.91	1	97.59 ± 8.36	1	effect on viability of CORT-damaged PC12 cells (PC12 cells [2]): did not show the potential to restore cell viability; cytotoxicity to PC12 cells (PC12 cells [5]): no significant cytotoxicity; Relative growth rate (%) 24 h (PC12 cells [5]; PC12, 60 μM): 88.18 ± 0.93%; Rank (cytotoxicity standard) 48 h (PC12 cells [5]; PC12, 60 μM): 1; Relative growth rate (%) 48 h (PC12 cells [5]; PC12, 60 μM): 98.48 ± 2.00%
CCN1C/C(=C\c2cc(Cl)c(O)c(Cl)c2)C(=O)/C(=C/c2cc(Cl)c(O)c(Cl)c2)C1 [CAK03, 3,5-bis ((E)-3,5-dichloro-4-hydroxybenzylidene)-1-ethylpiperidin-4-one]	0.08	46.56	increased the survival rate of cells in a concentration-dependent manner	1	96.25 ± 0.78	1	98.96 ± 1.23	1	87.65 ± 5.86	1	94.59 ± 1.02	1	88.25 ± 5.62	1	89.84 ± 0.82	1	82.96 ± 2.83	1	95.25 ± 9.43	1	relative cell proliferation rate (PC12 cells [2]; 15 μM drug with 514.6 μM CORT): 59.15±0.51%; relative cell proliferation rate (PC12 cells [2]; 60 μM drug with 514.6 μM CORT): 59.92±1.53%; Relative growth rate (%) 24 h (PC12 cells [5]; PC12, 60 μM): 77.51 ± 4.22%; Rank (cytotoxicity standard) 48 h (PC12 cells [5]; PC12, 60 μM): 3; Relative growth rate (%) 48 h (PC12 cells [5]; PC12, 60 μM): 30.33±6.54%
CC(C)N1C/C(=C\c2cc(Cl)c(O)c(Cl)c2)C(=O)/C(=C/c2cc(Cl)c(O)c(Cl)c2)C1 [CAK04, 3,5-bis ((E)-3,5-dichloro-4-hydroxybenzylidene)-1-isopropylpiperidin-4-one]	0.04	57.78	increased the survival rate of cells in a concentration-dependent manner	1	98.54 ± 5.42	0	100.97 ± 3.25	1	99.95 ± 5.76	0	100.45 ± 2.96	1	99.06 ± 5.73	1	99.75 ± 1.57	1	99.66 ± 2.34	1	98.02 ± 3.00	0	effect on viability of CORT-damaged PC12 cells (PC12 cells [2]): did not show the potential to restore cell viability; relative proliferation rate of cells (PC12 cells [4]; 30 μM drug with 585.8 μM H2O2, 24 h): 52.12±0.88%; cytotoxicity to PC12 cells (PC12 cells [5]): no significant cytotoxicity; Relative growth rate (%) 24 h (PC12 cells [5]; PC12, 60 μM): 101.64 ± 3.95%; Rank (cytotoxicity standard) 48 h (PC12 cells [5]; PC12, 60 μM): 0; Relative growth rate (%) 48 h (PC12 cells [5]; PC12, 60 μM): 100.17 ± 2.92%
O=C1O[C@H]([C@@H](O)CO)C(O)=C1O [Vit C, ascorbic acid, reference compound]	–	54.54	–	–	–	–	–	–	–	–	–	–	–	–	–	–	–	–	–	–	–

Reference: patent publication US20250289786A1, “CHLORINATED MONOCARBONYL CURCUMIN COMPOUNDS, PREPARATION METHOD, AND APPLICATION” (Southwest Medical University, priority 2024, published 2025)
